The test addresses aldosterone synthase (CYP11B2) (Macaca fascicularis, UniProt A0A2K5UPL9). The test can be described thus: aldosterone synthase inhibition assay. Particulars: cynomolgus adrenal gland mitochondria, 2 μM corticosterone, aldosterone quantified by mass spectrometry. The class given is biochemical, cynomolgus monkey. The method in brief: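 Cynomolgus adrenal mitochondria ([…]) used as CYP11B2 source with 2 μM corticosterone in 100 mM potassium phosphate pH 7.4, 1% DMSO; reaction started with 1 mM NADPH, run 60-90 min at 37° C. Aldosterone measured by mass spectrometry; IC50 from 4-parameter logistic fit, no-NADPH blank as 0%.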
Sequence of aldosterone synthase (CYP11B2) (A0A2K5UPL9 1-503): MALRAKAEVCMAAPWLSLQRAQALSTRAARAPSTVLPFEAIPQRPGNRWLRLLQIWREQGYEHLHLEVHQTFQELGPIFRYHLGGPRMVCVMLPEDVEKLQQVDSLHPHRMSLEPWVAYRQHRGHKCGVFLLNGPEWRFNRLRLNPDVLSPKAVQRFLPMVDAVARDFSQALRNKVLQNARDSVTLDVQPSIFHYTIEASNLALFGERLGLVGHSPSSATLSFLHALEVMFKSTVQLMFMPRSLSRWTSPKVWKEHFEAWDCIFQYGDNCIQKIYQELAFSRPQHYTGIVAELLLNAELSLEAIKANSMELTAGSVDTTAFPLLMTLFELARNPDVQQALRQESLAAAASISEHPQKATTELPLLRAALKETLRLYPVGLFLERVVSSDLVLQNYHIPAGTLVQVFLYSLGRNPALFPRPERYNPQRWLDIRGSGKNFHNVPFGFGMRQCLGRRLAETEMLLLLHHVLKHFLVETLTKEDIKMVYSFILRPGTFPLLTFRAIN
As a reminder, the IC50 is the concentration that gives 50% inhibition. Low readings indicate inhibition by little substance, high ones a need for much substance. `O=C1CCc2cc(-c3cncc4c3COCC4O)ccc21` (single isomer, unassigned) [Compound 183, 5-(4-Hydroxy-3,4-dihydro-1H-pyrano[4,3-c]pyridin-8-yl)-indan-1-one]: it took 52 nM to reach half-maximal inhibition (IC50).

In turn, `CN(C)C1COCc2c(-c3ccc4cnn(C)c4c3)cncc21` (single isomer, unassigned) [Compound 185, Dimethyl-[8-(1-methyl-1H-indazol-6-yl)-3,4-dihydro-1H-pyrano[4,3-c]pyridin-4-yl]-amine] came in with an IC50 of 18 nM. This IC50 lies about 2.9-fold lower than the previous one. To `N#CC1CC=C(c2cncc3c2COCC3O)CC1` (single isomer, unassigned) [Compound 186, 4-(4-Hydroxy-3,4-dihydro-1H-pyrano[4,3-c]pyridin-8-yl)-cyclohex-3-enecarbonitrile] belongs 67 nM; to `Cn1ncc2c1C=C(c1cncc3c1COCC3O)CC2` (single isomer, unassigned) [Compound 187, 8-(1-Methyl-4,5-dihydro-1H-indazol-6-yl)-3,4-dihydro-1H-pyrano[4,3-c]pyridin-4-ol], 12.9 nM; to `Cn1nnc2ccc(-c3cncc4c3COCC4O)cc21` (single isomer, unassigned) [Compound 188, 8-(3-Methyl-3H-benzotriazol-5-yl)-3,4-dihydro-1H-pyrano[4,3-c]pyridin-4-ol], 21 nM. The figure for `Cn1ncc2c1C=C(c1cncc3c1COCC3O)CC2` (single isomer, unassigned) [Compound 189, 8-(1-Methyl-4,5-dihydro-1H-indazol-6-yl)-3,4-dihydro-1H-pyrano[4,3-c]pyridin-4-ol] is 67 nM; for `Cn1ncc2c1CC(c1cncc3c1COCC3O)CC2` (single isomer, unassigned) [Compound 190, 8-(1-Methyl-4,5,6,7-tetrahydro-1H-indazol-6-yl)-3,4-dihydro-1H-pyrano[4,3-c]pyridin-4-ol] it is 340 nM; for `Cn1ncc2c1CC(c1cncc3c1COCC3O)CC2` (single isomer, unassigned) [Compound 191, 8-(1-Methyl-4,5,6,7-tetrahydro-1H-indazol-6-yl)-3,4-dihydro-1H-pyrano[4,3-c]pyridin-4-ol] it is 48 nM.

`N#CC1CC=C(c2cncc3c2COCC3O)CC1` (single isomer, unassigned) [Compound 192, 4-(4-Hydroxy-3,4-dihydro-1H-pyrano[4,3-c]pyridin-8-yl)-cyclohex-3-enecarbonitrile] registered an IC50 of 14 nM. The figure for `CCC(=O)NC1COCc2c(-c3cc4c(cnn4C)cc3F)cncc21` (single isomer, unassigned) [Compound 193, N-[8-(5-Fluoro-1-methyl-1H-indazol-6-yl)-3,4-dihydro-1H-pyrano[4,3-c]pyridin-4-yl]-propionamide] is 38 nM.

Take `CCC(=O)NC1COCc2c(-c3ccc4c(c3)COCC4(F)F)cncc21` (single isomer, unassigned) [Compound 194, N-[8-(4,4-Difluoro-isochroman-7-yl)-3,4-dihydro-1H-pyrano[4,3-c]pyridin-4-yl]-propionamide]: the IC50 was found to be 38 nM. To `CCS(=O)(=O)NC1COCc2c(-c3cc4c(cnn4C)cc3F)cncc21` (single isomer, unassigned) [Compound 195, Ethanesulfonic acid [8-(5-fluoro-1-methyl-1H-indazol-6-yl)-3,4-dihydro-1H-pyrano[4,3-c]pyridin-4-yl]-amide] belongs 140 nM; to `CCS(=O)(=O)NC1COCc2c(-c3ccc4c(c3)COCC4(F)F)cncc21` (single isomer, unassigned) [Compound 196, Ethanesulfonic acid [8-(4,4-difluoro-isochroman-7-yl)-3,4-dihydro-1H-pyrano[4,3-c]pyridin-4-yl]-amide], 330 nM. As for `Cn1nnc2ccc(-c3cncc4c3COC3(CC3)C4O)cc21` (single isomer, unassigned) [Compound 197, 8-(3-methylbenzotriazol-5-yl)spiro[1,4-dihydropyrano[4,3-c]pyridine-3,1′-cyclopropane]-4-ol], the IC50 came to 18 nM. The figure for `Cn1nnc2ccc(-c3cncc4c3COC3(CC3)C4O)cc21` (single isomer, unassigned) [Compound 198, 8-(3-methylbenzotriazol-5-yl)spiro[1,4-dihydropyrano[4,3-c]pyridine-3,1′-cyclopropane]-4-ol] is 19 nM; for `OC1COCc2c(-c3ccc4c(c3)COCC4(F)F)cncc21` (single isomer, unassigned) [Compound 199, 8-(4,4-Difluoro-isochroman-7-yl)-3,4-dihydro-1H-pyrano[4,3-c]pyridin-4-ol] it is 22 nM.

For `OC1COCc2c(-c3ccc4c(c3)COCC4(F)F)cncc21` (single isomer, unassigned) [Compound 200, 8-(4,4-Difluoro-isochroman-7-yl)-3,4-dihydro-1H-pyrano[4,3-c]pyridin-4-ol], half-maximal inhibition (IC50) required 279 nM.

`Cn1ncc2ccc(-c3cncc4c3COCC4C#N)cc21` (stereo not drawn) [Compound 9, 8-(1-Methyl-1H-indazol-6-yl)-3,4-dihydro-1H-pyrano[4,3-c]pyridine-4-carbonitrile] gave an IC50 of 5.7 nM. For `NC(=O)N1CCCc2cc(-c3cncc4c3COCC4O)cnc21` (stereo not drawn) [Compound 102, 6-(4-Hydroxy-3,4-dihydro-1H-pyrano[4,3-c]pyridin-8-yl)-3,4-dihydro-2H-[1,8]naphthyridine-1-carboxylic acid amide], the concentration for half-maximal inhibition (IC50) was 64.9 nM.

Compound `NC(=O)N1CCCc2cc(-c3cncc4c3C(O)COC4)cnc21` (stereo not drawn) [Compound 160, 6-(4-Hydroxy-3,4-dihydro-1H-pyrano[3,4-c]pyridin-5-yl)-3,4-dihydro-2H-[1,8]naphthyridine-1-carboxylic acid amide] showed an IC50 of 51.1 nM. This IC50 and that of the compound before are within 1.5-fold of each other. `CCS(=O)(=O)NC1COCc2c(-c3ccc4c(c3)CCC4O)cncc21` (stereo not drawn) [Compound 184, Ethanesulfonic acid [8-(1-hydroxy-indan-5-yl)-3,4-dihydro-1H-pyrano[4,3-c]pyridin-4-yl]-amide] showed an IC50 of 124 nM.
